Values of other authors as cited in publication PMC2222665, “The dimerization domain of HIV-1 viral infectivity factor Vif is required to block virion incorporation of APOBEC3G” (Retrovirology, 2007).

System: HIV-1
Design: method as in PMID 1708976
Conditions: ref [45],[46]

Cc1cn([C@H]2C[C@H](N=[N+]=[N-])[C@@H](CO)O2)c(=O)[nH]c1=O [AZT]
IC95 of HIV-1 infectivity: 5 µM
